{
  "source": "patent US8236827B2",
  "about": "“Compounds” (Spear Therapeutics Limited, priority 2009, dated 2012)",
  "key": {"CYP1A2": {"molecular_target": "T1, CYP1A2 (Homo sapiens, UniProt P05177)", "T1 sequence (P05177 1-516)": "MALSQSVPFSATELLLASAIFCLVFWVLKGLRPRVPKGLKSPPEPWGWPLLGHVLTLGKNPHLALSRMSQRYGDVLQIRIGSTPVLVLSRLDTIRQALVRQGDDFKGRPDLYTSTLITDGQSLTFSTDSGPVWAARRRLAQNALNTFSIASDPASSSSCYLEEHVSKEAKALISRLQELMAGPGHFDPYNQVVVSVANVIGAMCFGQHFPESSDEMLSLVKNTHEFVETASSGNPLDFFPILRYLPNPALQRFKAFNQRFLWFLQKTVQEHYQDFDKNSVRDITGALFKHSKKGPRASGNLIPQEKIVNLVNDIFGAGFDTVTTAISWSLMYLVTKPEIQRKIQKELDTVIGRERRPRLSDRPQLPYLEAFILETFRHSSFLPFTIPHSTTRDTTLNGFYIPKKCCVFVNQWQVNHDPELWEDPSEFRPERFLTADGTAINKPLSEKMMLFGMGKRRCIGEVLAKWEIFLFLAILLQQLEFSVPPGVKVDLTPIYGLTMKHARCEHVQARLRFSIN", "test": "CYP phenotyping, metabolic stability", "type": "in vitro ADME", "settings": "CYP1A2 (40 pm/mL); 1 μM; after 60 minutes", "method": "(§1) As mentioned above, a feature of the compounds of the invention is their metabolism by CYP1B1 which is expressed at high frequency in a wide range of human cancers of different histogenetic types, but not in normal tissues. […] Compounds V and II were exposed to a panel of six CYPs (see Table 5 below).\n(§2) CYP metabolism studies were performed by Cerep Laboratories (Redmond, Wash., USA). Compounds were screened in duplicate at 1 μM in the presence of CYP enzyme, NADP (1.3 mM), D-Glucose-6-phosphate (3.3 mM) and Glucose-6-phosphate dehydrogenase. Following incubation at 0 and 60 minutes, parent compound levels were determined using standard HPLC/MS/MS procedures. The results are expressed as percent parent compound remaining after 60 minutes."}, "CYP3A5": {"molecular_target": "CYP3A5 (Homo sapiens, UniProt P20815)", "sequence (P20815 whole entry, species assumed)": "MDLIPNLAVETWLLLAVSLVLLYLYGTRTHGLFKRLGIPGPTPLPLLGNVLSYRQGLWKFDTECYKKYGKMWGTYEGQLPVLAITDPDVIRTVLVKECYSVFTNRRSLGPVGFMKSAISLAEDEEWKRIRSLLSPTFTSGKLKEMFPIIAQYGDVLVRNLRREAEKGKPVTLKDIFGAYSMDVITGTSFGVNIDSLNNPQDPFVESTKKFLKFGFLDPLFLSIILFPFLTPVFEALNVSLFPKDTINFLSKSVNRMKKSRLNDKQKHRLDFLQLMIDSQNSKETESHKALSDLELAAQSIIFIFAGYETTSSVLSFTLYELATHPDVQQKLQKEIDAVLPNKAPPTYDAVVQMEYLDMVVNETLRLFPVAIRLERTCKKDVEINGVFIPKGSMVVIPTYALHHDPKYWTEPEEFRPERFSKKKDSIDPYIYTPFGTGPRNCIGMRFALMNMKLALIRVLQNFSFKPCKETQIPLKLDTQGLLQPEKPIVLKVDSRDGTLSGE", "test": "CYP phenotyping, metabolic stability", "type": "in vitro ADME", "settings": "CYP3A5 (10 pm/mL); 1 μM; after 60 minutes", "method": "as §1, §2"}, "[1]": {"test": "Cytotoxicity (MTS) in CHO/CYP1A1 cells", "type": "cell-based, Chinese Hamster", "settings": "Chinese hamster; 96 h, MTS", "method": "(§3) CHO/CYP1A1 and CHO/CYP1B1 cells: CHO cells containing recombinant CYP1A1 and recombinant CYP1B1 co-expressing P450 reductase, namely (CHO/CYP1A1) and (CHO/CYP1B1) respectively, were cultured using the standard culture medium for CHO cells supplemented with 0.4 mg/ml G418 disulfate salt and 0.3 μM methotrexate (Sigma/Aldrich Co., Gillingham, Dorset, UK) according to methods described in the literature (ibid.) Cells were grown at 37° C. in a humidified atmosphere plus 5% CO2.\n(§4) A single cell suspension of CHO, CHO/CYP1A1 or CHO/CYP1B1 in 100 μl of the required cell culture medium was seeded onto 96-well plates at a cell density of 1500 cells per well and placed in an incubator for 24 h at 37° C. The stock solution of test compound in DMSO was then added to give a concentration range of 100, 30, 10, 3, 1, 0.3, 0.1, 0.03, 0.01, 0.003, 0.001, 0 μM. The final concentration of DMSO 0.2% was found not to affect the growth characteristics of the various CHO cell lines. The cells were incubated with the test compound for 96 h after which all the medium was aspirated and replaced with 100 μl of fresh medium to compensate for the loss of medium due to evaporation. The cells were incubated with 20 μl of the MTS assay reagent for 1.5 h and the absorbance per well at 510 nm measured using a plate reader. The mean absorbance and standard deviation for each test compound concentration was calculated versus a series of controls including (a) cells plus medium, (b) cell plus medium containing DMSO 0.2%, (c) medium alone, and (d) medium containing DMSO 0.2% and a range of test compound concentrations from 0 to 100 μM.\n(§5) The MTS assay is a homogeneous, colorimetric method for determining the number of viable cells in proliferation, cytotoxicity or chemosensitivity assays (Cali J J, et al., “Luminescence-Based Methods and Probes for Measuring Cytochrome P450 Activity”, pp. 1-29. Promega Corporation, United States, 2004, the contents of which are incorporated herein by reference). The assay is composed of solutions of tetrazolium compound [3-(4,5-dimethylthiazol-2-yl)-5-(3-carboxymethoxyphenyl)-2-(4-sulfophenyl)-2H-tetrazolium, inner salt; MTS] and an electron coupling reagent (phenazine methosulfate) PMS. MTS is bioreduced by cells into a formazan product that is soluble in tissue culture medium. The absorbance of the formazan product at 510 nm can be directly measured from 96-well assay plates. The quantity of formazan product as measured by the amount of absorbance at 490 or 510 nm is directly proportional to the number of living cells in culture."}, "CHO/CYP1A1 cells": {"tested_on": "CHO/CYP1A1 cells", "test": "Cytotoxicity (MTS) in CHO/CYP1A1 cells", "type": "cell-based, Chinese Hamster", "method": "as §3, §4, §5"}, "CHO/CYP1B1 cells": {"tested_on": "CHO/CYP1B1 cells", "test": "Cytotoxicity (MTS) in CHO/CYP1B1 cells", "type": "cell-based, Chinese Hamster", "method": "as §3, §4, §5"}, "[2]": {"test": "Cytotoxicity (MTS) in CHO/CYP1B1 cells", "type": "cell-based, Chinese Hamster", "settings": "Chinese hamster; text of b216; read-out: IC50, proliferation of CHO/CYP1B1 cells", "method": "as §3, §4, §5"}, "CYP2D6": {"molecular_target": "CYP2D6 (Homo sapiens, UniProt P10635)", "sequence (P10635 whole entry, species assumed)": "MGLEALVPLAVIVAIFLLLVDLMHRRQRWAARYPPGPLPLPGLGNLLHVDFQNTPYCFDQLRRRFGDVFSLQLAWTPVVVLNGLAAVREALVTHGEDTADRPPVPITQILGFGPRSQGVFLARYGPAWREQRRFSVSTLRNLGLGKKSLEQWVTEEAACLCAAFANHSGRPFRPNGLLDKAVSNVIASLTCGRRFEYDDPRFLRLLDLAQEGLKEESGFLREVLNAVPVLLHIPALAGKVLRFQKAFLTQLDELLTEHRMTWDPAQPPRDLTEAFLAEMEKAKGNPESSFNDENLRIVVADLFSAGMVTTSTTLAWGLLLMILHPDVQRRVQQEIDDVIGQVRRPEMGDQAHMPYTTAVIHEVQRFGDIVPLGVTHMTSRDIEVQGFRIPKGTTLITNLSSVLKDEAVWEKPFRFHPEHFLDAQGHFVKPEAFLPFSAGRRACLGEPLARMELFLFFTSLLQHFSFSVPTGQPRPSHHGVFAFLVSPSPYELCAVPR", "test": "CYP phenotyping, metabolic stability", "type": "in vitro ADME", "settings": "CYP2D6 (10 pm/mL); 1 μM; after 60 minutes", "method": "(§6) Compounds V and II were exposed to a panel of six CYPs (see Table 5 below).\nas §2"}, "CYP2C9": {"molecular_target": "CYP2C9 (Homo sapiens, UniProt P11712)", "sequence (P11712 whole entry, species assumed)": "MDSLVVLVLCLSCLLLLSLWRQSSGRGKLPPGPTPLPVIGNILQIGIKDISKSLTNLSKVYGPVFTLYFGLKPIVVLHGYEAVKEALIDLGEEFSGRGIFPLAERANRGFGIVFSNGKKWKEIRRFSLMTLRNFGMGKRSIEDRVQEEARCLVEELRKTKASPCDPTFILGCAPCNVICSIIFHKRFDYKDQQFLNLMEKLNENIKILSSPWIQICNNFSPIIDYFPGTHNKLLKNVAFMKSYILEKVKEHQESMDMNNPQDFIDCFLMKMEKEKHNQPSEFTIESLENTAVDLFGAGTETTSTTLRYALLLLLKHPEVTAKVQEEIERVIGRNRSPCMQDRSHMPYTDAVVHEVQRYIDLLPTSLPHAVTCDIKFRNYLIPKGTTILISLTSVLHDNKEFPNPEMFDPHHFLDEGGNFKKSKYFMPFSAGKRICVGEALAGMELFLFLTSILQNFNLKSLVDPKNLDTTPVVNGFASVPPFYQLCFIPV", "test": "CYP phenotyping, metabolic stability", "type": "in vitro ADME", "settings": "CYP2C9 (10 pm/mL); 1 μM; after 60 minutes", "method": "as §6, §2"}, "CYP2C19": {"molecular_target": "CYP2C19 (Homo sapiens, UniProt P33261)", "sequence (P33261 whole entry, species assumed)": "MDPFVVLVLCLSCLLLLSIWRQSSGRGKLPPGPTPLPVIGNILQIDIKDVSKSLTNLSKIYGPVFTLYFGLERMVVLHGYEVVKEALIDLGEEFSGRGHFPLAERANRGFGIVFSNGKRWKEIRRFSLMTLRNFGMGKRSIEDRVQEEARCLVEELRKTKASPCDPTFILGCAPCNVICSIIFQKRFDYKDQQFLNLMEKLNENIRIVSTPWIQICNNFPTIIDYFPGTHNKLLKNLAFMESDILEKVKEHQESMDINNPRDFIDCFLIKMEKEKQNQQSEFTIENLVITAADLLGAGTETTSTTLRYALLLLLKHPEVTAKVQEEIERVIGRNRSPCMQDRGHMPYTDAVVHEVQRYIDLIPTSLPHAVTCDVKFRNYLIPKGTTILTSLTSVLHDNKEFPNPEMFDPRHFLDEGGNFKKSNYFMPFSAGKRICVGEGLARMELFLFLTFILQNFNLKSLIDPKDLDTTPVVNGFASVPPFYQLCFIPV", "test": "CYP phenotyping, metabolic stability", "type": "in vitro ADME", "settings": "CYP2C19 (10 pm/mL); 1 μM; after 60 minutes", "method": "as §6, §2"}, "CYP3A4": {"molecular_target": "CYP3A4 (Homo sapiens, UniProt P08684)", "sequence (P08684 whole entry, species assumed)": "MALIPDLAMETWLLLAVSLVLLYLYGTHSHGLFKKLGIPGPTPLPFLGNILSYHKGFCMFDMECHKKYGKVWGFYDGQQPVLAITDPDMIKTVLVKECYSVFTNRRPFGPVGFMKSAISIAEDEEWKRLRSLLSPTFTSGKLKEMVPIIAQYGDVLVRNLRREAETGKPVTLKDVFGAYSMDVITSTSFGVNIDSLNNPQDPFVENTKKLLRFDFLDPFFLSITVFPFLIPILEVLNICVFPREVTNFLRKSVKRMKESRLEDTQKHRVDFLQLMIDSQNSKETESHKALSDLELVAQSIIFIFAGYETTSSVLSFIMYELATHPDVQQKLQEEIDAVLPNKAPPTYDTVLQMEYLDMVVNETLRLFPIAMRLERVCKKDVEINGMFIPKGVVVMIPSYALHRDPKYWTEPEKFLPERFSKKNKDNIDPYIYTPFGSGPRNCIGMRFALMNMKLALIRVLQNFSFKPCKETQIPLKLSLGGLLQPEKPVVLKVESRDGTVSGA", "test": "CYP phenotyping, metabolic stability", "type": "in vitro ADME", "settings": "CYP3A4 (10 pm/mL); 1 μM; after 60 minutes", "method": "as §6, §2"}},
  "data": [
    {"smiles": "COc1ccc(-c2cc(-c3ccc4c(c3)OCO4)cc(=O)[nH]2)cc1OC", "note": "[Compound V]", "values": [
      {"measurement": "Mean Parent Remaining (%)", "setting": "CYP1A2", "result": 71, "unit": "%"},
      {"measurement": "Mean Parent Remaining (%)", "setting": "CYP3A5", "result": 87, "unit": "%"},
      {"measurement": "IC50 at 96 h", "setting": "[1]", "result": "> 100000", "unit": "nM"},
      {"measurement": "toxicity / activity in CYP1A1 expressing CHO cells (in words)", "setting": "CHO/CYP1A1 cells", "result": "non toxic"},
      {"measurement": "activity against CHO/CYP1B1 cells (in words)", "setting": "CHO/CYP1B1 cells", "result": "strongly inhibit proliferation"},
      {"measurement": "IC50 at 96 h", "setting": "[2]", "result": 80, "unit": "nM"},
      {"measurement": "Mean Parent Remaining (%)", "setting": "CYP2D6", "result": 100, "unit": "%"},
      {"measurement": "Mean Parent Remaining (%)", "setting": "CYP2C9", "result": 109, "unit": "%"},
      {"measurement": "Mean Parent Remaining (%)", "setting": "CYP2C19", "result": 111, "unit": "%"},
      {"measurement": "Mean Parent Remaining (%)", "setting": "CYP3A4", "result": 93, "unit": "%"}
    ]}
  ]
}
